Data published in patent US20250289789A1, “REVERSIBLE LYSINE COVALENT MODIFIERS OF CDK2 AND USES THEREOF” (Terremoto Biosciences, Inc., priority 2023, published 2025).
In brackets after ≈: the same amount, converted by molar mass.

How the values were obtained:
[1] = Solubility determination in PBS pH 7.4; format: physicochemical; conditions: aqueous buffer, kinetic from dmso stock; PBS pH 7.4, 2 hours, 25° C.; the listed prodrug
Method: Stock solutions (10 mM DMSO, 30 μL) of each sample were placed into 96-well plate, along with 970 μL of PBS pH 7.4 were added into each vial of the cap-less solubility sample plate. The assay was performed in duplicate. A stir stick was added to each well and sealed using a molded PTFE/Silicone plug. Then the Solubility Sample plate was transferred to an Eppendorf Thermomixer Comfort plate shaker and shaken at 1100 RPM for 2 hours at 25° C. After completion the plugs and stir sticks were removed and the samples were transferred into a filter plate and filtered using a vacuum manifold. 5 μL aliquots of filtrate were taken and diluted with 5 μL DMSO and 490 μL of a 1:1 v/v mixture of H2O and acetonitrile. 200 μL of diluent was transferred to a new 96-well plate for LC-MS/MS analysis. The solution was analyzed and quantified against a standard of known concentration in DMSO using LC coupled with Mass spectral peak for identification and quantitation.

[2] = Oral bioavailability and pharmacokinetic analysis following oral administration in Nu/Nu mice; conditions: male, in vivo; for Prodrug AUCinf: mouse, 6 mg
Method: Compound was administered via oral gavage in male Nu/Nu mice (n=3). The vehicle composition was 10% N-Methylpyrrolidone, 40% PEG300, 50% water (pH=4-8) at 6 mg-equivalent/mL to parent drug and a dose volume of 5 mL/Kg. Formulations were prepared freshly before dosing and stored at room temperature. Plasma samples were collected at the following time intervals: 0.5, 1, 2, 4, 8, 12, 24, 48, and 72 hours post dose (based on the start of oral dosing). Serial blood samples were collected (approximately 0.025 mL) via retro-orbital vein into K2EDTA. Whole blood was processed into plasma by centrifuge (4000 rpm for 5 minutes at 4° C.) followed by addition of 0.5 M ammonium formate (pH=3, 300% of plasma volume). Plasma samples were stored in a freezer at −75±15° C. until analysis. Plasma samples were analyzed after thawing and incubating for 1 h at 37° C. followed by protein precipitation with acetonitrile containing IS mixture (vortex 30 s, centrifugation at 4° C., 400 rpm for 15 min) and the resulting supernatant was further diluted with water before injecting onto Shimadzu 8060 LC-MS/MS system for analysis. Unknown plasma samples concentration was calibrated using standard range of 0.2 to 1 000 ng/mL for parent.
Bioavailability (% F) was calculated by comparing observed plasma concentrations of parent drug after oral administration of prodrug or parent drug to observed plasma concentrations via IV (intravenous) administration of parent drug.

Row | solubility at 2 h [1] [µM] | Structure (SMILES) | Prodrug Mouse % F [2] [%] | Prodrug AUCinf [2] [µM·h]
1 | 68 (≈ 33.8 µg/mL) | Cc1cc(O)c(/C=N/C(C)C)c(OCC(=O)Nc2cc([C@H]3CC[C@@H](OC(=O)NC4(C)CC4)C3)[nH]n2)c1 [Compound 145a, (1R,3S)-3-(3-(2-(3-hydroxy-2-((E)-(isopropylimino)methyl)-5-methylphenoxy)acetamido)-1H-pyrazol-5-yl)cyclopentyl (1-methylcyclopropyl)carbamate] |  | 
2 | 41 (≈ 21.1 µg/mL) | CCC/N=C/c1c(O)cc(OC)cc1OCC(=O)Nc1cc([C@H]2CC[C@@H](OC(=O)NC3(C)CC3)C2)[nH]n1 [Compound 251b, (1R,3S)-3-(3-(2-(3-hydroxy-5-methoxy-2-((E)-(propylimino)methyl)phenoxy)acetamido)-1H-pyrazol-5-yl)cyclopentyl (1-methylcyclopropyl)carbamate] |  | 

More lines, now with the values behind:

Row | Structure (SMILES) | solubility at 2 h [1] [µM] | Prodrug Mouse % F [2] [%] | Prodrug AUCinf [2] [µM·h]
3 | COc1cc(O)c(/C=N/C(C)C)c(OCC(=O)Nc2cc([C@H]3CC[C@@H](OC(=O)N4CC5CC(C4)O5)C3)[nH]n2)c1 [Compound 235a, (1R,3S)-3-(3-(2-(3-hydroxy-2-((E)-(isopropylimino)methyl)-5-methoxyphenoxy)acetamido)-1H-pyrazol-5-yl)cyclopentyl 6-oxa-3-azabicyclo[3.1.1]heptane-3-carboxylate] |  | 3.2 | 15.2
4 | CC/N=C/c1c(O)cc(OC)cc1OCC(=O)Nc1cc([C@H]2CC[C@@H](OC(=O)NC(C)C)C2)[nH]n1 [Compound 64c, (1R,3S)-3-(3-(2-(2-((E)-(ethylimino)methyl)-3-hydroxy-5-methoxyphenoxy)acetamido)-1H-pyrazol-5-yl)cyclopentyl isopropylcarbamate] | 246 (≈ 120 µg/mL) |  | 
5 | COc1cc(O)c(/C=N/C(C)C)c(OCC(=O)Nc2cc([C@H]3CC[C@@H](OC(=O)N4C5COCC4C5)C3)[nH]n2)c1 [Compound 231a, (1R,3S)-3-(3-(2-(3-hydroxy-2-((E)-(isopropylimino)methyl)-5-methoxyphenoxy)acetamido)-1H-pyrazol-5-yl)cyclopentyl 3-oxa-6-azabicyclo[3.1.1]heptane-6-carboxylate] |  | 2.8 | 12.9
